Results on seven molecules are retold here after patent publication US4359473A, “α-Amino deoxy clavulanic acid antibacterial agents” (priority 1977, dated 1982).

Each structure is given as a SMILES string.

The test system of one data set is E. Coli E96. The experiment in a line: Subcutaneous synergistic activity with amoxycillin, intraperitoneal mouse infection, E. Coli E96. Format: in vivo. An excerpt:
(§1) 9-N-Isobutylaminodeoxyclavulanic acid and 9-N-n-butylaminodeoxyclavulanic acid have been compared as synergists in vivo by the subcutaneous route against 2 strains of RTEM E. Coli in intraperitoneal mouse infections.
(§2) Comparative subcutaneous synergistic activity of 9-N-Isobutylaminodeoxyclavulanic acid and 9-N-n-butylaminodeoxyclavulanic acid with amoxycillin against mouse E. Coli infections

A short description of a further data set: Aqueous solubility. It is filed as physicochemical.
Data set [1] relates to E. coli JT 39. The experiment in a line: Effectiveness as synergist with amoxycillin, peritoneal infection due to E. coli JT 39 (Demonstration 2). It is filed as in vivo. The settings on record: for ED50: Escherichia coli, JT39, sc, Test 1, alone, sub-cutaneous 1 and 5 hours post infection, read-out: CD50 (approximate), compound alone.
The next data set has as its system E. Coli E124. The experiment in a line: Subcutaneous synergistic activity with amoxycillin, intraperitoneal mouse infection, E. Coli E124. It is filed as in vivo.
From the text: as §1, §2

The test system of data set [2] is staphylococcus aureus Russell. The experiment in a line: Effectiveness as anti-bacterial, mice infected with Staphylococcus aureus Russell (thigh lesion). Format: in vivo. The settings on record: for Protection (%): subcutaneous at 1, 3 and 5 hours post infection. The method, then:
Mice were infected with staphylococcus aureus Russell (thigh lesion with 0.2 ml im) and thereafter were dosed subcutaneously at 1, 3 and 5 hours post infection with a solution of the test compound.

Data set [3] has as its system E. coli JT 39. As to the kind of experiment: In-vivo synergistic effect with amoxycillin in mice infected by E. coli JT 39. Here is the method: This microorganism produces considerable quantities of a β-lactamase which degrades amoxycillin so reducing its antibaceterial effectiveness in-vivo.
(Sodium amoxycillin was prepared by dissolving amoxycillin trihydrate in
sodium carbonate/sodium bicarbonate buffer).

For data set [4], the system named is β-lactamase producing strains of gram-negative and gram-positive bacteria. As to the kind of experiment: Synergistic/antibacterial activity in-vivo, general statement. As to conditions: with penicillins and cephalosporins.
Another data set in a line: in vivo. The settings on record: mouse, ip.
A short description of another data set: LD50 in mice. As to conditions: mouse, in vivo, sc.

Regarding `CC(C)CNC/C=C1\O[C@@H]2CC(=O)N2[C@H]1C(=O)O` [9-N-Isobutylaminodeoxyclavulanic acid], the “relative synergist activity in vivo, 2 strains of RTEM E. Coli” value in the data set on E. Coli E96 (subcutaneous route, intraperitoneal mouse infections, both strains (E96, E124)) is given as “more active then the n-butylamine”. In the data set “Aqueous solubility”, the aqueous solubility entry was “increased aqueous solubility”.

For `CC1(C)S[C@@H]2[C@H](NC(=O)[C@H](N)c3ccc(O)cc3)C(=O)N2[C@H]1C(=O)O` [Amoxycillin], the ED50 in the data set on E. coli JT 39 [1] was 1000 mg/kg; in the data set on E. Coli E96 (Escherichia coli, sc, E. Coli E96, P392, alone, read-out: CD50, amoxycillin alone), above 1000 mg/kg; with E. Coli E124 (Escherichia coli, sc, E. Coli E124, P397, alone, read-out: CD50, amoxycillin alone), above 1000 mg/kg. For the same molecule, the “CD50 (approximate), compound alone” value with E. coli JT 39 [1] (Test 2, sub-cutaneous 1 and 5 hours post infection) worked out at 1000 mg/kg × 2; with E. coli JT 39 [1] (Test 3, sub-cutaneous 1 and 5 hours post infection), 1000 mg/kg × 2. In addition, the “CD50, amoxycillin alone” value in the data set on E. Coli E96 (E. Coli E96, P409, alone) was above 1000 mg/kg × 2; in the data set on E. Coli E124 (E. Coli E124, P412), above 1000 mg/kg × 2.

Take `Cc1nnc(SCC2=C(C(=O)O)N3C(=O)[C@@H](NC(=O)Cn4cnnn4)[C@H]3SC2)s1` [Cefazolin, reference compound]: in the data set on E. coli JT 39 [1], the ED50 worked out at 10.5 mg/kg. For the same molecule, the “Protection (%)” value in data set [2] (20 mg/kg) stood at 39.0%; in data set [2] (50 mg/kg), 71.2%.

Consider `Cc1onc(-c2ccccc2Cl)c1C(=O)N[C@@H]1C(=O)N2[C@@H]1SC(C)(C)[C@@H]2C(=O)O` [Cloxacillin, reference compound], for which the “Protection (%)” value in [2] (20 mg/kg) is listed as 61.6%; in data set [2] (50 mg/kg), 91.7%.

On to `O=C(O)[C@H]1/C(=C/CNCc2ccccc2)O[C@@H]2CC(=O)N21` [Example 2, 9-N-Benzylaminodeoxyclavulanic acid], for which the “protecting amoxycillin from the β-lactamase of E. coli JT 39 in-vivo” value with E. coli JT 39 [3] (administered orally) is “less effective per given weight than when administered sub-cutaneously”. Moreover, in the data set on E. coli JT 39 [3] (in-vivo synergy tests, mice), the “toxic effects during these tests” value is given as “not observed to produce toxic effects”. Moreover, the “Protection (%)” value is 69.8% in [2] (5 mg/kg), 89.7% in [2] (10 mg/kg) and 99.3% in data set [2] (20 mg/kg). Also, in [2] (compared with ampicillin, cloxacillin or cefazolin), the “effectiveness in treating certain infections due to Staphylococcus aureus Russell” value is recorded as “more effective than ampicillin, cloxacillin or cefazolin”. In addition, the synergistic activity in-vivo entry in data set [4] is on record as “particularly good synergistic activity in-vivo”. Besides, the LD50 in the data set “in vivo” is above 1000 mg/kg; in the data set “LD50 in mice”, above 500 mg/kg.

Turning to `COc1ccc(CNC/C=C2\O[C@@H]3CC(=O)N3[C@H]2C(=O)O)cc1` [Example 7, 9-N-(4-Methoxybenzyl)aminodeoxyclavulanic acid], the “Protection (%)” value in [2] (5 mg/kg) is 28.0%; in data set [2] (10 mg/kg) it was 80.8%; in data set [2] (20 mg/kg) it was 87.6%.

As to `CC1(C)S[C@@H]2[C@H](NC(=O)[C@H](N)c3ccc(O)cc3)C(=O)N2[C@H]1C(=O)O` [Sodium amoxycillin, reference compound], the ED50 in the data set with E. coli JT 39 [3] (Escherichia coli, JT39, sc, sub-cutaneous, mice, alone, read-out: CD50, sodium amoxycillin alone) is 200 mg/kg.

For orientation: LD50 means the dose expected to kill half of the subjects tested. Lower therefore signals a more toxic substance.
